In publication PMC12596218 (Journal of Lipid Research, 2025):

T1: ASBT (Homo sapiens, UniProt Q12908)
T1 construct: stably transfected with the full open reading frames of human NTCP, ASBT, SOAT, OATP1B1, OATP1B3, OATP2B1, and murine Asbt (mAsbt); expressed in transfected cells; host or cells: HEK293 (Flp-In), stably transfected, tetracycline-induced
T1 sequence (Q12908 1-348): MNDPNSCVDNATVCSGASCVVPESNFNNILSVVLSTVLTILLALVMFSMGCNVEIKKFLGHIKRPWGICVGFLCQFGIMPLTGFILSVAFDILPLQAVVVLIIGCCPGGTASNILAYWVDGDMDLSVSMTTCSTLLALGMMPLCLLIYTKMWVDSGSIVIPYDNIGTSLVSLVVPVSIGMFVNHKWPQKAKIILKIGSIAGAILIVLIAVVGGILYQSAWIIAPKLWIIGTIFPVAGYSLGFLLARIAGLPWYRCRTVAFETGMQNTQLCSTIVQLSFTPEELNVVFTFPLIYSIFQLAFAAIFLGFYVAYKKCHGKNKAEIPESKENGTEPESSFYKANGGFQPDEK

T2: SOAT (Homo sapiens, UniProt Q3KNW5)
T2 construct: stably transfected with the full open reading frames of human NTCP, ASBT, SOAT, OATP1B1, OATP1B3, OATP2B1, and murine Asbt (mAsbt); expressed in transfected cells; host or cells: HEK293 (Flp-In), stably transfected, tetracycline-induced
T2 sequence (Q3KNW5 1-377): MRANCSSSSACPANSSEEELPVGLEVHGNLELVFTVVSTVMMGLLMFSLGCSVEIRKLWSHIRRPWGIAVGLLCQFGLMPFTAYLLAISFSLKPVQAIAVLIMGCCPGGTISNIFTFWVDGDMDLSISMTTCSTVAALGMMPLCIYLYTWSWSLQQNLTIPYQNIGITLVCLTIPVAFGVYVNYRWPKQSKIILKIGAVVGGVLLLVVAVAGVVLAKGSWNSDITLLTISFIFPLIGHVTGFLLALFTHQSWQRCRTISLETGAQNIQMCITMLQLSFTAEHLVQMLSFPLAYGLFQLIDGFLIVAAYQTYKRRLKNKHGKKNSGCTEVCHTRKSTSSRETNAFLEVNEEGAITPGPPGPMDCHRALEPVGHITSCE


Columns and labels:
[1] = molecular target: mAsbt; conditions: ref 42 Hallén et al. (2002); read-out: Ki mAsbt inhibition; cited from earlier work
[2] = system: mAsbt; assay: mAsbt inhibition and TC transport by Hallén et al. (2002); format: cell-based, mouse; conditions: from Ki values of ref 42
[3] = molecular target: T1, ASBT; assay: Transport inhibition and recovery assay (inhibitor washout) in ASBT-HEK293 cells; format: cell-based; conditions: 100 μM inhibitor 5 min, 240 min recovery
Method: HEK293 cells stably expressing ASBT were seeded onto poly-L-lysine-coated 96-well plates, induced with 1 μg/ml tetracycline, and grown to confluence over 72 h at 37°C. Non-carrier-expressing HEK293 cells were used as control. Then, cells were washed with tempered (37°C) PBS and equilibrated for 5 min with STB. […] After inhibitor preincubation, cells were washed with tempered (37°C) PBS and further incubated in inhibitor-free DMEM (Thermo Fisher Scientific) for 30, 60, 120, or 240 min at 37°C. […] Finally, cell associated radioactivity was determined using the MicroBeta2 liquid scintillation counter (Revvity). For each inhibitor, the mean values from noncarrier-expressing HEK293 cells were set to 0% and transport measurements in the absence of inhibitor (solvent control) were set to 100%.
In the second setup, the inhibitor was thoroughly washed out after the preincubation phase and cells were placed on inhibitor-free medium for different time intervals of 0–240 min (indicated by “recovery time” in Fig. 7A).

[4] = molecular target: T1, ASBT; assay: [3H]TC transport and inhibition assay in ASBT-HEK293 cells; format: cell-based; conditions: inhibitor at 100 μM, 1 μM [3H]TC, 10 min
Source text: (§1) Human embryonic kidney HEK293 cells, stably transfected with the full open reading frames of human NTCP, ASBT, SOAT, OATP1B1, OATP1B3, OATP2B1, and murine Asbt (mAsbt) were used as reported ([18], [20], [21], [22], [23]). The NTCP, ASBT, and mAsbt constructs were C-terminally tagged with the FLAG epitope, and the SOAT construct was C-terminally tagged with green fluorescent protein. Non-transfected Flp-In HEK293 cells (Thermo Fisher Scientific) served as the control. All cell lines were maintained at 37°C, 5% CO2 and 95% humidity in DMEM/F-12 medium (Thermo Fisher Scientific) supplemented with 10% fetal calf serum (Sigma-Aldrich), 4 mM L-glutamine (PAA) and penicillin/streptomycin (PAA). Expression of the respective carrier protein was induced by tetracycline treatment at 1 μg/ml (Carl Roth GmbH + Co. KG).
(§2) Cells were seeded onto poly-L-lysine-coated 96-well plates, induced with 1 μg/ml tetracycline, and grown to confluence over 72 h at 37°C. Then, cells were washed with tempered (37°C) phosphate-buffered saline (PBS, containing 137.0 mM NaCl, 2.7 mM KCl, 1.5 mM KH2PO4, and 7.3 mM Na2HPO4, at pH 7.4) and preincubated with 80 μl sodium transport buffer (STB, containing 142.9 mM NaCl, 4.7 mM KCl, 1.2 mM MgSO4, 1.2 mM KH2PO4, 1.8 mM CaCl2, and 20.0 mM HEPES, at pH 7.4) for 5 min at 37°C. For inhibition studies, the medium was replaced by 80 μl STB containing the respective inhibitor or solvent alone and cells were further incubated for 5 min at 37°C. Transport experiments were started by adding 20 μl of a 5-fold concentrated substrate solution (solved in STB). For transport experiments under sodium-free conditions the same buffer composition was used as for STB, but sodium chloride was substituted with equimolar concentrations of choline chloride as previously reported ([20], [24]). Transport experiments were stopped by washing twice with ice-cold PBS and the plates were kept cool on ice until adding the lysis buffer [1% sodium dodecyl sulfate (SDS) and 1 N NaOH]. Then, the cell-associated radioactivity of the respective tritium-labeled substrate or ligand was quantified by liquid scintillation counting using MicroScint-20 scintillation cocktail (Revvity) in a Packard Microplate Scintillation Counter TopCount NXT (Packard Instrument Company). For IC50 transport inhibition measurements, the mean uptake values measured in non-carrier-expressing HEK293 control cells were defined as 0% uptake control and were subtracted from all other values. Values from cells without inhibitor and solvent alone were set to 100%. Finally, all net transport data were expressed as uptake or binding as % of control. All transport or inhibition graphs were generated with GraphPad Prism 6 (GraphPad). Determination of half maximal inhibitory concentrations (IC50) was done by nonlinear regression analysis using the equation log (inhibitor) versus response—variable slope settings. All data points of the IC50 curves represent means ± SD of quadruplicate determinations. For Km measurements, BS uptake in the absence of sodium was regarded as carrier-independent unspecific uptake and was subtracted from the transport rates in the presence of sodium to obtain carrier-specific uptake rates (indicated as dashed lines). From the specific uptake rates, Michaelis Menten Km values were calculated by non-linear regression analysis.

[5] = molecular target: T2, SOAT; assay: [3H]DHEAS transport inhibition assay in SOAT-HEK293 cells; format: cell-based; conditions: inhibitor at 100 μM, 1 μM [3H]DHEAS, 10 min
Source text: as §1, §2

[6] = molecular target: T1, ASBT; assay: Transport inhibition and recovery assay (inhibitor washout) in ASBT-HEK293 cells; format: cell-based; conditions: 100 μM inhibitor, 5 min preincubation, 1 μM [3H]TC
[7] = substrate: C[C@H](CCC(=O)NCCS(=O)(=O)O)[C@H]1CC[C@H]2[C@@H]3[C@H](O)C[C@@H]4C[C@H](O)CC[C@]4(C)[C@H]3C[C@H](O)[C@]12C; assay: cells, lysate or membranes; conditions: other: sodium-dependent specific uptake, initial linear phase, pH 7.4

Molecule	Km ([7]; 37.0 °C)	Km [7]	other results
CCCC[C@]1(CC)CS(=O)(=O)c2ccccc2[C@@H](c2ccccc2)N1 [2164U90]			Ki [1]: 68 nM; Difference in inhibitor potency mAsbt versus ASBT [2]: 150 fold
Cc1c(C)c2c(c(C)c1O)CCC(C)(COc1ccc(CC3SC(=O)NC3=O)cc1)O2 (stereo not drawn) [troglitazone]			ASBT recovery after washout and 240 min in inhibitor-free medium [3]: only partial recovery; Inhibition of ASBT [3H]TC transport [4]: significantly inhibited; Inhibition of SOAT [3H]DHEAS transport [5]: significantly inhibited; ASBT inhibition with inhibitor present during uptake (inhibitor + [3H]TC) [6]: nearly complete ASBT inhibition
ASBT (Homo sapiens) (protein) MNDPNSCVDNATVCSGASCVVPESNFNNILSVVLSTVLTILLALVMFSMGCNVEIKKFLGHIKRPWGICVGFLCQFGIMPLTGFILSVAFDILPLQAVVVLIIGCCPGGTASNILAYWVDGDMDLSVSMTTCSTLLALGMMPLCLLIYTKMWVDSGSIVIPYDNIGTSLVSLVVPVSIGMFVNHKWPQKAKIILKIGSIAGAILIVLIAVVGGILYQSAWIIAPKLWIIGTIFPVAGYSLGFLLARIAGLPWYRCRTVAFETGMQNTQLCSTIVQLSFTPEELNVVFTFPLIYSIFQLAFAAIFLGFYVAYKKCHGKNKAEIPESKENGTEPESSFYKANGGFQPDEK	46.0 µM		
ASBT S294T/I295V (ASBT→mAsbt) (Homo sapiens; I295V/S294T) (protein) MNDPNSCVDNATVCSGASCVVPESNFNNILSVVLSTVLTILLALVMFSMGCNVEIKKFLGHIKRPWGICVGFLCQFGIMPLTGFILSVAFDILPLQAVVVLIIGCCPGGTASNILAYWVDGDMDLSVSMTTCSTLLALGMMPLCLLIYTKMWVDSGSIVIPYDNIGTSLVSLVVPVSIGMFVNHKWPQKAKIILKIGSIAGAILIVLIAVVGGILYQSAWIIAPKLWIIGTIFPVAGYSLGFLLARIAGLPWYRCRTVAFETGMQNTQLCSTIVQLSFTPEELNVVFTFPLIYTVFQLAFAAIFLGFYVAYKKCHGKNKAEIPESKENGTEPESSFYKANGGFQPDEK		25.9 µM	
murine Asbt (mAsbt) (Mus musculus) (protein) MDNSSVCPPNATVCEGDSCVVPESNFNAILNTVMSTVLTILLAMVMFSMGCNVEVHKFLGHIKRPWGIFVGFLCQFGIMPLTGFILSVASGILPVQAVVVLIMGCCPGGTGSNILAYWIDGDMDLSVSMTTCSTLLALGMMPLCLFVYTKMWVDSGTIVIPYDSIGISLVALVIPVSFGMFVNHKWPQKAKIILKIGSITGVILIVLIAVIGGILYQSAWIIEPKLWIIGTIFPIAGYSLGFFLARLAGQPWYRCRTVALETGMQNTQLCSTIVQLSFSPEDLNLVFTFPLIYTVFQLVFAAVILGIYVTYRKCYGKNDAEFLEKTDNEMDSRPSFDETNKGFQPDEK	272.3 µM		
NTCP (Homo sapiens) (protein) MEAHNASAPFNFTLPPNFGKRPTDLALSVILVFMLFFIMLSLGCTMEFSKIKAHLWKPKGLAIALVAQYGIMPLTAFVLGKVFRLKNIEALAILVCGCSPGGNLSNVFSLAMKGDMNLSIVMTTCSTFCALGMMPLLLYIYSRGIYDGDLKDKVPYKGIVISLVLVLIPCTIGIVLKSKRPQYMRYVIKGGMIIILLCSVAVTVLSAINVGKSIMFAMTPLLIATSSLMPFIGFLLGYVLSALFCLNGRCRRTVSMETGCQNVQLCSTILNVAFPPEVIGPLFFFPLLYMIFQLGEGLLLIAIFWCYEKFKTPKDKTKMIYTAATTEETIPGALGNGTYKGEDCSPCTA	90.9 µM		
NTCP M290S (NTCP→ASBT) (Homo sapiens; M290S) (protein) MEAHNASAPFNFTLPPNFGKRPTDLALSVILVFMLFFIMLSLGCTMEFSKIKAHLWKPKGLAIALVAQYGIMPLTAFVLGKVFRLKNIEALAILVCGCSPGGNLSNVFSLAMKGDMNLSIVMTTCSTFCALGMMPLLLYIYSRGIYDGDLKDKVPYKGIVISLVLVLIPCTIGIVLKSKRPQYMRYVIKGGMIIILLCSVAVTVLSAINVGKSIMFAMTPLLIATSSLMPFIGFLLGYVLSALFCLNGRCRRTVSMETGCQNVQLCSTILNVAFPPEVIGPLFFFPLLYSIFQLGEGLLLIAIFWCYEKFKTPKDKTKMIYTAATTEETIPGALGNGTYKGEDCSPCTA		15.9 µM	
NTCP M290T/I291V (NTCP→mAsbt) (Homo sapiens; I291V/M290T) (protein) MEAHNASAPFNFTLPPNFGKRPTDLALSVILVFMLFFIMLSLGCTMEFSKIKAHLWKPKGLAIALVAQYGIMPLTAFVLGKVFRLKNIEALAILVCGCSPGGNLSNVFSLAMKGDMNLSIVMTTCSTFCALGMMPLLLYIYSRGIYDGDLKDKVPYKGIVISLVLVLIPCTIGIVLKSKRPQYMRYVIKGGMIIILLCSVAVTVLSAINVGKSIMFAMTPLLIATSSLMPFIGFLLGYVLSALFCLNGRCRRTVSMETGCQNVQLCSTILNVAFPPEVIGPLFFFPLLYTVFQLGEGLLLIAIFWCYEKFKTPKDKTKMIYTAATTEETIPGALGNGTYKGEDCSPCTA		69.5 µM	
